Read-outs that look alike come from different tables or passages of the source.
Tests used:
Type in all cases: cell-based
[1] = tested on: UACC-62; experiment: NCI 60 antitumor screening (single dose / five doses); settings: Homo sapiens
[2] = tested on: DU-145; experiment: as above; settings: Homo sapiens
[3] = tested on: HCT-15; experiment: as above; settings: Homo sapiens
[4] = tested on: LOX IMVI; experiment: as above; settings: Homo sapiens, read-out: Growth inhibition percentage (GI %)
[5] = tested on: A498; experiment: as above; settings: Homo sapiens
[6] = tested on: RXF 393; experiment: as above; settings: Homo sapiens
[7] = tested on: BT-549; experiment: as above; settings: Homo sapiens
[8] = tested on: MOLT-4; experiment: as above; settings: Homo sapiens
[9] = tested on: IGROV1; experiment: as above; settings: Homo sapiens
[10] = tested on: SR; experiment: as above; settings: Homo sapiens, read-out: Growth inhibition percentage (GI %)
[11] = tested on: NCI/ADR-RES; experiment: as above; settings: Homo sapiens, read-out: Growth inhibition percentage (GI %)
[12] = tested on: SN 12C; experiment: as above; settings: Homo sapiens, SN12C, read-out: Growth inhibition percentage (GI %)
[13] = tested on: EKVX; experiment: as above; settings: Homo sapiens, read-out: Growth inhibition percentage (GI %)
[14] = tested on: HCT-116; experiment: as above; settings: Homo sapiens
[15] = tested on: SK-MEL-2; experiment: as above; settings: Homo sapiens
[16] = tested on: MDA-MB-231/ATCC; experiment: as above; settings: Homo sapiens
[17] = tested on: COLO 205; experiment: as above; settings: Homo sapiens
[18] = tested on: 60 human subpanel cancer cell lines; experiment: NCI 60 antitumor screening, mean over the panel (single dose); settings: mean over 60 cancer cell lines, single dose 10 μM
Summary of the method: (§1)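 The panel mean likewise comes from single-dose (10 μM) NCI 60-line testing, with inhibition expressed as 100 − G%.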

[19] = tested on: MDA-MB-468; experiment: NCI 60 antitumor screening (single dose / five doses); settings: Homo sapiens
[20] = tested on: SK-MEL-28; experiment: as above; settings: Homo sapiens
[21] = tested on: SNB-75; experiment: as above; settings: Homo sapiens
[22] = tested on: OVCAR-4; experiment: NCI 60 antitumor screening (single dose); settings: Homo sapiens; OVCAR-4 (ovarian cancer), single dose 10 μM; read-out: Growth inhibition percentage (GI %)
Summary of the method: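 NCI-60 one-dose screen. Dose: 10 μM. Lines: 60 human tumour lines, nine tissue types. Output: GI% = 100 − G%.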

[23] = tested on: SK-OV-3; experiment: NCI 60 antitumor screening (single dose); settings: Homo sapiens; SK-OV-3 (ovarian cancer), single dose 10 μM; read-out: Growth inhibition percentage (GI %)
Summary of the method: as §1

[24] = tested on: NCI-H23; experiment: NCI 60 antitumor screening (single dose); settings: Homo sapiens; NCI-H23 (non-small cell lung cancer), single dose 10 μM; read-out: Growth inhibition percentage (GI %)
Summary of the method: as §1

[25] = tested on: SK-MEL-5; experiment: NCI 60 antitumor screening (single dose / five doses); settings: Homo sapiens
[26] = tested on: HL-60(TB); experiment: as above; settings: Homo sapiens
[27] = tested on: SF-295; experiment: as above; settings: Homo sapiens
[28] = tested on: MDA-MB-435; experiment: as above; settings: Homo sapiens
[29] = UACC-62 (melanoma), single dose 10 μM, read-out: Growth inhibition percentage (GI %)
[30] = DU-145 (prostate cancer), single dose 10 μM, read-out: Growth inhibition percentage (GI %)
[31] = HCT-15 (colon cancer), single dose 10 μM, read-out: Growth inhibition percentage (GI %)
[32] = LOX IMVI (melanoma), single dose 10 μM
[33] = A498 (renal cancer), single dose 10 μM, read-out: Growth inhibition percentage (GI %)
[34] = RXF 393 (renal cancer), single dose 10 μM, read-out: Growth inhibition percentage (GI %)
[35] = BT-549 (breast cancer), single dose 10 μM, read-out: Growth inhibition percentage (GI %)
[36] = MOLT-4 (leukaemia), single dose 10 μM, read-out: Growth inhibition percentage (GI %)
[37] = IGROV-1, IGROV1 (ovarian cancer), single dose 10 μM, read-out: Growth inhibition percentage (GI %)
[38] = SR (leukaemia), single dose 10 μM
[39] = NCI/ADR-RES (ovarian cancer), single dose 10 μM
[40] = SN 12C (renal cancer), single dose 10 μM
[41] = EKVX (non-small cell lung cancer), single dose 10 μM
[42] = HCT-116 (colon cancer), single dose 10 μM, read-out: Growth inhibition percentage (GI %)
[43] = SK-MEL-2 (melanoma), single dose 10 μM, read-out: Growth inhibition percentage (GI %)
[44] = MDA-MB-231/ATCC (breast cancer), single dose 10 μM, read-out: Growth inhibition percentage (GI %)
[45] = COLO 205 (colon cancer), single dose 10 μM, read-out: Growth inhibition percentage (GI %)
[46] = MDA-MB-468 (breast cancer), single dose 10 μM, read-out: Growth inhibition percentage (GI %)
[47] = SK-MEL-28 (melanoma), single dose 10 μM, read-out: Growth inhibition percentage (GI %)
[48] = SNB-75 (CNS cancer), single dose 10 μM, read-out: Growth inhibition percentage (GI %)
[49] = SK-MEL-5 (melanoma), single dose 10 μM, read-out: Growth inhibition percentage (GI %)
[50] = HL-60(TB) (leukaemia), single dose 10 μM, read-out: Growth inhibition percentage (GI %)
[51] = SF-295 (CNS cancer), single dose 10 μM, read-out: Growth inhibition percentage (GI %)
[52] = MDA-MB-435 (melanoma), single dose 10 μM, read-out: Growth inhibition percentage (GI %)

Clc1cccc(/C=N/Nc2nc(N/N=C/c3cccc(Cl)c3Cl)nc(N3CCCCC3)n2)c1Cl [compound 7h, 2,4-Bis[(E)-2-[(2,3-Dichlorophenyl)methylidene]hydrazin-1-yl]-6-(piperidin-1-yl)-1,3,5-triazine]
inhibition at 10 µM [1, 29]: 31.7% | inhibition at 10 µM [2, 30]: 26.6% | inhibition at 10 µM [3, 31]: 34.5% | inhibition at 10 µM [4, 32]: 31.7% | inhibition at 10 µM [5, 33]: 7.46% | inhibition at 10 µM [6, 34]: -11.8% | inhibition at 10 µM [7, 35]: 2.7% | inhibition at 10 µM [8, 36]: 15.7% | inhibition at 10 µM [9, 37]: 20.4% | inhibition at 10 µM [10, 38]: 66.6% | inhibition at 10 µM [11, 39]: 32.6% | inhibition at 10 µM [12, 40]: 19.3% | inhibition at 10 µM [13, 41]: 11% | inhibition at 10 µM [14, 42]: 51.2% | inhibition at 10 µM [15, 43]: 2.27% | inhibition at 10 µM [16, 44]: 15.8% | inhibition at 10 µM [17, 45]: 9.72% | Mean GI % [18]: 18.81% | inhibition at 10 µM [19, 46]: 7.19% | inhibition at 10 µM [20, 47]: 5.78% | inhibition at 10 µM [21, 48]: -4.05% | inhibition at 10 µM [22]: 28.6% | inhibition at 10 µM [23]: -5.17% | inhibition at 10 µM [24]: 0.28% | inhibition at 10 µM [25, 49]: 0.02% | inhibition at 10 µM [26, 50]: -6.32% | inhibition at 10 µM [27, 51]: 7.34% | inhibition at 10 µM [28, 52]: -13.8%

O=[N+]([O-])c1cc(/C=N/Nc2nc(N/N=C/c3ccc(Cl)c([N+](=O)[O-])c3)nc(N3CCCCC3)n2)ccc1Cl [compound 7i, 2,4-Bis[(E)-2-[(4-Chloro-3-nitrophenyl)methylidene]hydrazin-1-yl]-6-(piperidin-1-yl)-1,3,5-triazine]
inhibition at 10 µM ([1]; UACC-62, read-out: Growth inhibition percentage (GI %)): 34% | inhibition at 10 µM ([2]; DU-145, read-out: Growth inhibition percentage (GI %)): 70.4% | inhibition at 10 µM ([3]; HCT-15, read-out: Growth inhibition percentage (GI %)): 50.3% | inhibition at 10 µM ([4]; LOX IMVI): 34% | inhibition at 10 µM ([5]; A498, read-out: Growth inhibition percentage (GI %)): -8.06% | inhibition at 10 µM ([6]; RXF 393, read-out: Growth inhibition percentage (GI %)): 0.13% | inhibition at 10 µM ([7]; BT-549, read-out: Growth inhibition percentage (GI %)): 2.15% | inhibition at 10 µM ([8]; MOLT-4, read-out: Growth inhibition percentage (GI %)): 57.7% | inhibition at 10 µM ([9]; IGROV-1, read-out: Growth inhibition percentage (GI %)): 47.2% | inhibition at 10 µM ([10]; SR): 36.8% | inhibition at 10 µM ([11]; NCI/ADR-RES): 69.8% | inhibition at 10 µM [12]: 27.7% | inhibition at 10 µM ([13]; EKVX): 22% | inhibition at 10 µM ([14]; HCT-116, read-out: Growth inhibition percentage (GI %)): 78% | inhibition at 10 µM ([15]; SK-MEL-2, read-out: Growth inhibition percentage (GI %)): 37.8% | inhibition at 10 µM ([16]; MDA-MB-231, read-out: Growth inhibition percentage (GI %)): 51.7% | inhibition at 10 µM ([17]; COLO 205, read-out: Growth inhibition percentage (GI %)): -0.27% | Mean GI % [18]: 37.38% | inhibition at 10 µM ([19]; MDA-MB-468, read-out: Growth inhibition percentage (GI %)): 31.2% | inhibition at 10 µM ([20]; SK-MEL-28, read-out: Growth inhibition percentage (GI %)): 22.2% | inhibition at 10 µM ([21]; SNB-75, read-out: Growth inhibition percentage (GI %)): -36.1% | inhibition at 10 µM [22]: 13.1% | inhibition at 10 µM [23]: 1.24% | inhibition at 10 µM [24]: 18.2% | inhibition at 10 µM ([25]; SK-MEL-5, read-out: Growth inhibition percentage (GI %)): 48.9% | inhibition at 10 µM ([26]; HL-60, read-out: Growth inhibition percentage (GI %)): 58.1% | inhibition at 10 µM ([27]; SF-295, read-out: Growth inhibition percentage (GI %)): 6.78% | inhibition at 10 µM ([28]; MDA-MB-435, read-out: Growth inhibition percentage (GI %)): 19.3%

Oc1ccc(/C=N/Nc2nc(N/N=C/c3ccc(O)c(O)c3)nc(N3CCCCC3)n2)cc1O [compound 7j, 4-[(1e)-(2-{4-[(E)-2-[(3,4-Dihydroxyphenyl)methylidene]hydrazin-1-yl]-6-(piperidin-1-yl)-1,3,5-triazin-2-yl}hydrazin-1-ylidene)methyl]benzene-1,2-diol]
inhibition at 10 µM [1, 29]: 3.56% | inhibition at 10 µM [2, 30]: 0.25% | inhibition at 10 µM [3, 31]: 16.1% | inhibition at 10 µM [4, 32]: 6.65% | inhibition at 10 µM [5, 33]: -2.84% | inhibition at 10 µM [6, 34]: -17.8% | inhibition at 10 µM [7, 35]: 1.47% | inhibition at 10 µM [8, 36]: 6.3% | inhibition at 10 µM [9, 37]: 5.35% | inhibition at 10 µM [10, 38]: 25.9% | inhibition at 10 µM [11, 39]: -3.16% | inhibition at 10 µM [12, 40]: 4.32% | inhibition at 10 µM [13, 41]: 1.58% | inhibition at 10 µM [14, 42]: 23.7% | inhibition at 10 µM [15, 43]: 9.62% | inhibition at 10 µM [16, 44]: 12.8% | inhibition at 10 µM [17, 45]: -6.39% | Mean GI % [18]: 1.89% | inhibition at 10 µM [19, 46]: 10.2% | inhibition at 10 µM [20, 47]: -7.04% | inhibition at 10 µM [21, 48]: -4% | inhibition at 10 µM [22]: -0.74% | inhibition at 10 µM [23]: -24.8% | inhibition at 10 µM [24]: 0.5% | inhibition at 10 µM [25, 49]: 4.85% | inhibition at 10 µM [26, 50]: -1.96% | inhibition at 10 µM [27, 51]: 0.36% | inhibition at 10 µM [28, 52]: -1.68%

C(=N\Nc1nc(N/N=C/c2ccc3c(c2)OCO3)nc(N2CCCCC2)n1)/c1ccc2c(c1)OCO2 [compound 7k, 2,4-Bis[(E)-2-(2H-1,3-Benzodioxol-5-ylmethylidene)hydrazin-1-yl]-6-(piperidin-1-yl)-1,3,5-triazine]
inhibition at 10 µM [1, 29]: -2.37% | inhibition at 10 µM [2, 30]: 0.19% | inhibition at 10 µM [3, 31]: 66.2% | inhibition at 10 µM [4, 32]: 52.1% | inhibition at 10 µM [5, 33]: 48.3% | inhibition at 10 µM [6, 34]: 20.3% | inhibition at 10 µM [7, 35]: -21.9% | inhibition at 10 µM [8, 36]: 43.7% | inhibition at 10 µM [9, 37]: 23.1% | inhibition at 10 µM [10, 38]: 99.9% | inhibition at 10 µM [11, 39]: 14.5% | inhibition at 10 µM [12, 40]: 20.3% | inhibition at 10 µM [13, 41]: 6.27% | inhibition at 10 µM [14, 42]: 52.1% | inhibition at 10 µM [15, 43]: -2.84% | inhibition at 10 µM [16, 44]: 9.3% | inhibition at 10 µM [17, 45]: 14.1% | Mean GI % [18]: 14.53% | inhibition at 10 µM [19, 46]: 18.4% | inhibition at 10 µM [20, 47]: -8.67% | inhibition at 10 µM [21, 48]: -13.1% | inhibition at 10 µM [22]: -9.55% | inhibition at 10 µM [23]: -39.5% | inhibition at 10 µM [24]: -1.44% | inhibition at 10 µM [25, 49]: 3.15% | inhibition at 10 µM [26, 50]: 39.6% | inhibition at 10 µM [27, 51]: 22.2% | inhibition at 10 µM [28, 52]: 1.52%

Reference: PMC9848300, “Discovery of novel enasidenib analogues targeting inhibition of mutant isocitrate dehydrogenase 2 as antileukaemic agents” (Journal of Enzyme Inhibition and Medicinal Chemistry, 2023)
